Where two headings read alike, the source gives them in different places.
Assays:
[1] = system: Alternaria solani in tomato (early blight disease); assay: Greenhouse efficacy on tomato early blight, lesion area at 4 dpi (Examples 1-3); type: in vivo
[2] = system: Soybean Target Spot (Corynespora cassicola); assay: Greenhouse trial on potted soybean plants, target spot (Example 8); type: in vivo
Botrytis = assay: Greenhouse trial on potted plants, Botrytis in pepper (Example 7)
Description: (§1) Following trials were conducted on crops (potted plants) infected with the pathogen/disease in a greenhouse trial.

Target Spot = assay: Greenhouse trial on potted plants, target spot in soybean (Example 7)
Description: as §1

[3] = system: tomato late blight disease; type: in vivo
cucumber downy mildew [4] = assay: Greenhouse efficacy on cucumber downy mildew (Example 4); type: in vivo
Early Blight = conditions: Tomato
Description: as §1

cucumber downy mildew [5] = assay: Greenhouse efficacy on cucumber downy mildew (Example 9); type: in vivo
[6] = system: tomato early blight disease; assay: Greenhouse efficacy on tomato early blight disease (Example 6); type: in vivo
[7] = system: tomato early blight disease; assay: Greenhouse trial on potted tomato plants, early blight (Example 10); type: in vivo
[8] = 0.75 g/L, 30 g Cu/HA (standard)
[9] = 17.5 g/L, 700 g Cu/HA (standard)

O=C(O)c1ccccc1O [Salicylic acid]
Observed efficacy % ([1]; Table 1, 20 g/HA of SA): 13.3%
Observed efficacy % ([1]; Table 2, 40 mg/L, 2.5 g SA/HA): 23.4%
Observed efficacy % ([1]; Table 2, 80 mg/L, 5 g SA/HA): 22.1%
Observed efficacy % ([1]; Table 2, 320 mg/L, 10 g/HA): −2.3%
Observed efficacy % ([1]; Table 2, 320 mg/L, 20 g/HA): −2.7%

O=C1C2CC=CCC2C(=O)N1SC(Cl)(Cl)Cl (stereo not shown) [captan]
Efficacy (%) ([2]; 0.02 g/L, 1.56 g Captan/ha): 0.4%
Efficacy (%) ([2]; 6 g/L, 467 g Captan/ha (full recommended dose)): 100%
Efficacy (%) (Botrytis; 0.002 g/l, 0.16 gai/ha): 20.4%

O=C1c2ccccc2C(=O)N1SC(Cl)(Cl)Cl [folpet]
Efficacy (%) (Target Spot; 0.015 g/l, 0.625 gai/ha): 34.7%
Efficacy (%) ([2]; 0.015 g/L, 0.63 g Folpet/ha): 34.7%
Efficacy (%) ([2]; 5 g/L, 208.5 g Folpet/ha (full recommended dose)): 98.4%
Efficacy (%) (Botrytis; 0.002 ml/l, 0.1 gai/ha): 9.3%

O=C([O-])c1ccccc1O.[K+] [potassium salicylate]
Observed efficacy % ([3]; 137 mg/L, 1.7 g SA/HA): 15.2%
Efficacy (%) (Target Spot; captan and folpet sections, 0.025 g/l, 0.31 gai/ha): 19.5%
Efficacy (%) (Target Spot; captan and folpet sections, 0.1 g/l, 1.25 gai/ha): 12.4%
Efficacy (%) (Target Spot; captan and folpet sections, 0.41 g/l, 5.13 gai/ha): 1.8%
Efficacy (%) (Target Spot; captan and folpet sections, 0.82 g/l, 10.25 gai/ha): −6.1%
Efficacy (%) (Target Spot; captan and folpet sections, 1.64 g/l, 20.5 gai/ha): −11.4%
Efficacy (%) (Target Spot; mancozeb section, 0.025 g/l, 0.31 gai/ha): 16.8%
Efficacy (%) (Target Spot; mancozeb section, 0.1 g/l, 1.25 gai/ha): 12.6%
Efficacy (%) (Target Spot; mancozeb section, 0.41 g/l, 5.13 gai/ha): 27.6%
Efficacy (%) (Target Spot; mancozeb section, 0.82 g/l, 10.25 gai/ha): −3.8%
Efficacy (%) (Target Spot; mancozeb section, 1.64 g/l, 20.5 gai/ha): 6.3%
Observed efficacy (cucumber downy mildew [4]; 71 mg/L, 0.89 g SA/HA): 21.9
Efficacy (%) (Early Blight; 0.41 g/l, 5.13 gai/ha): −3%
Efficacy (%) ([2]; 25 mg/L, 0.31 g KSA/ha): 19.5%
Efficacy (%) ([2]; 100 mg/L, 1.25 g KSA/ha): 12.4%
Efficacy (%) ([2]; 410 mg/L, 5.13 g KSA/ha): 1.8%
Efficacy (%) ([2]; 820 mg/L, 10.27 g KSA/ha): −6.1%
Efficacy (%) ([2]; 1.64 g/L, 20.54 g KSA/ha): −11.4%
Efficacy (%) (Botrytis; 0.025 g/l, 0.31 gai/ha (mancozeb and captan sections)): −5.2%
Efficacy (%) (Botrytis; 0.1 g/l, 1.25 gai/ha (mancozeb and captan sections)): −3.9%
Efficacy (%) (Botrytis; folpet section, 0.1 g/l, 1.25 gai/ha): 12%
Observed efficacy % ([1]; Table 3, 410 mg/L): 5.8%
Observed efficacy % (cucumber downy mildew [5]; 103 mg/L, 1.29 g KSA/HA): 14.0%
Observed efficacy % (cucumber downy mildew [5]; 137 mg/L, 1.71 g KSA/HA): −1.1%
Observed efficacy % (cucumber downy mildew [5]; 207 mg/L, 2.59 g KSA/HA): −2.7%
Observed efficacy % ([6]; 310 mg/L, 3.875 g SA/HA): 2.2%
Observed efficacy % ([6]; 410 mg/L, 5.125 g SA/HA): 13.1%
Observed efficacy % ([6]; 620 mg/L, 7.75 g/HA): 11.4%
Observed efficacy % ([7]; 0.1 g/L, 1.25 gai/ha): 0.4%
Observed efficacy % ([7]; 0.41 g/L, 5.13 gai/ha): 2.3%
Observed efficacy % ([7]; 0.82 g/L, 10.25 gai/ha): 37.4%
Observed efficacy % ([7]; 1.64 g/L, 20.5 gai/ha): 34.4%

O=S(=O)([O-])[O-].[Cu+2].[Cu+2].[Cu+2].[Cu+2].[OH-].[OH-].[OH-].[OH-].[OH-].[OH-] [tribasic copper sulphate]
Observed efficacy % ([3]; 0.25 g/L, 10 g Cu/HA): 18.5%
Observed efficacy % [3, 8]: 62.9%
Observed efficacy (cucumber downy mildew [4]; 0.13 g/L, 5.2 g Cu/HA): −7.6
Observed efficacy (cucumber downy mildew [4]; [9]): 94.9
Observed efficacy % ([1]; Table 1, 150 g/HA of Cu): 31%
Observed efficacy % ([1]; Table 1, 700 g/HA of Cu (standard treatment)): 88%
Observed efficacy % ([1]; Table 2, 0.75 g/L, 150 g Cu/HA): 40.2%
Observed efficacy % ([1]; Table 2, 17.5 g/L, 700 g Cu/HA (standard)): 86.9%
Observed efficacy % ([1]; Table 3, 0.75 g/L): 23%
Observed efficacy % ([1]; Table 3, 17.5 g/L (standard)): 75%
Observed efficacy % (cucumber downy mildew [5]; 0.25 g/L, 10 g Cu/HA): 50.7%
Observed efficacy % (cucumber downy mildew [5]; [8]): 96.7%
Observed efficacy % ([6]; 0.75 g/L, 30 g Cu/HA): 18.5%
Observed efficacy % [6, 9]: 57.6%

mancozeb
Efficacy (%) (Target Spot; 0.0075 g/l, 0.56 gai/ha): −6.6%
Efficacy (%) (Early Blight; 0.0187 g/l, 1.4 gai/ha): −12.6%
Efficacy (%) (Botrytis; 0.0168 g/l, 1.26 gai/ha): 26.4%

Reference: patent US20250151723A1, “FUNGICIDAL COMBINATION, COMPOSITION, AND USE THEREOF” (UPL MAURITIUS LIMITED, priority 2023, published 2025)
